Experimental data published in patent US9931313B2, “Methods of treating proliferative disorders with malate or derivatives thereof” (Beth Israel Deaconess Medical Center, Inc., priority 2012, dated 2018).

Columns and labels:
[1] = test system: A549 cells; experiment: Proliferation assay of A549 cells treated with DMM; assay type: cell-based, human
Method: Control and ME2 deficient cell lines were plated in 6-well plate at a density of 1×10^5 cells/well and maintained at 37° C. in a 5% CO2 incubator. After 24, 72, 120 and 168 hours of initial plating, 0.5 ml cells were diluted into 10 ml of Hanks' buffer and counted by Coulter counter. All samples were assayed in triplicate to generate proliferation curves, as described in Benson et al., Nature 441: 451-456 (2006). For the clonogenic assay, A549 with stably expression ME2 knockdown and control shRNA cells were seeded in a 6-well plate at a density of 200 cells per well. Colonies were fixed with 10% formaldehyde for 5 min and stained with 0.5% crystal violet for 30 min and counted with NIH image software.
To test whether malate accumulation may damage mitochondrial function and further inhibit cell growth, an exogenous form of malate was delivered in vitro. Exogenous malate may mimic the phenotype-induced by ME2 knockdown. Therefore, we supplemented exogenous cell-permeable malate (Heart et al., Am. J. Physiol. 296: E1354-1362 (2009)) in A549 cell growth media and compared the phenotype with ME2 knockdown cells. DMM, being cell permeable, was used as an exogenous substitute for malate.

[2] = test system: A549 cells; experiment: Annexin-V apoptosis / cell death assay in A549 cells; assay type: cell-based, human; conditions: for DMM-induced cell death: DMM with NAC or GSH
Method: (§1) Apoptosis was measured by staining with the Nexin reagent using a Nexin kit and counting on the Guava PCA-96 system (Guava Technologies) as per the manufacture's protocol. Briefly, cells were harvested and re-suspended in 100 μl of 1× Nexin buffer, and then mixed with 100 μl of Annexin-V-PE, and Nexin 7-AAD. The cells were allowed to incubate for 20 minutes at room temperature and analyzed in the Guava flow cytometer.

[3] = test system: A549 cells; experiment: Cellular ROS by CM-H2DCFDA flow cytometry in A549 cells; assay type: cell-based, human; conditions: for DMM-induced ROS production: 10 or 20 mM DMM with 20 mM NAC or 20 mM GSH
Method: (§2) Intracellular ROS production was measured by staining with CM-H2DCFDA. CM-H2DCFDA is a cell-permeant indicator for ROS that is nonfluorescent until removal of the acetate groups by intracellular esterases and oxidation occurs within the cell. The procedure for measuring ROS was carried out as described in Trachootham et al., in Cancer Cell. 10: 241-252 (2006), with minor modifications. Briefly, A549 cells transduced with shRNA lentiviral particles or control vector were selected with puromycin for 2 weeks, and then incubated with 5 μM CM-H2DCF-DA for 3 hours, followed by flow cytometry using a FACSCalibur equipped with CellQuest Pro software. Superoxide radicals (O2^−) were measured separately using the MitoSOX™ reagent according to the manufacturer's protocol (Invitrogen). In brief, cells with or without ME2 knockdown were incubated with 5 μM MitoSOX™ reagent for 10 minutes at 37° C., then washed three times and observed under a fluorescence microscope using the Rhodamine filter and Axiovision software for capturing images (Zeiss, Germany).

[4] = test system: Akt and PDK1; experiment: Western blotting of Akt/PDK1 phosphorylation and differentiation marker in A549 cells; assay type: cell-based, human; conditions: for DMM-induced differentiation / basal Akt activity in DMM-treated A549 cells: DMM in combination with NAC or GSH; for basal Akt activity in DMM-treated A549 cells: p-AKT473
Method: A549 cells with and without ME2 knockdown were lysed with RIPA buffer (50 mM Tris-HCl, pH 7.4, 150 mM NaCl, 1% NP-40, 0.1% SDS and 0.5% sodium deoxycholate), and equal amount of proteins were resolved by 4%-12% Bis-Tris gels (Invitrogen), as previously described in Ren et al., Proc. Natl Acad. Sci. USA 104: 10465-10469 (2007). Briefly, the proteins were transferred to a PVDF membrane, and membranes were blocked with BLOTTO (5% nonfat dry milk and 0.1% Tween 20 in PBS), and incubated with antisera generated against ME2, phospho-AKT380, phosphor-473, AKT1/2, phosphor-ERK1/2, ERK1, vimentin, GATA-1 or β-tubulin antibodies, respectively. Membranes were washed in PBS plus 0.1% Tween 20 and probed with anti-rabbit or anti-mouse HRP-conjugated secondary antibody (both at 1:10,000 dilution), and proteins were detected using the ECL Plus chemiluminescence detection reagent (Amersham Biosciences).

[5] = test system: A549 cells; experiment: Mitochondrial superoxide by MitoSOX Red in A549 cells; assay type: cell-based, human
Method: as §2
We measured the ROS source using MitoSOX™ Red, a reagent that selectively targeted to the mitochondria.

[6] = test system: normal human derived fibroblast (NHDF) and normal lung epithelial cells; experiment: ROS by CM-H2DCFDA in normal cells; assay type: cell-based; conditions: 5, 10, 20 mM DMM
Method: (§3) A: Treatment with DMM induced ROS production in both normal human derived fibroblast (NHDF) and normal lung epithelial cells (Normal lung). ROS was detected by flow cytometry using indicator CM-H2DCFDA. Data are provided for the following curves (from left to right): 0, 5 mM, 10 mM, or 20 mM DMM. […] Cell death was analyzed by Annexin V reagent. Each histogram is representative of three experiments
as §2, with “Briefly, A549 cells transduced with shRNA lentiviral particles or control vector were selected with puromycin for 2 weeks, and then incubated with 5 μM CM-H2DCF-DA for 3 hours, followed by flow cytometry using a FACSCalibur equipped with CellQuest Pro software.” left out

[7] = test system: normal human derived fibroblast (NHDF) and normal lung epithelial cells; experiment: Cell death by Annexin V in normal cells; assay type: cell-based
Method: as §3, §1

[8] = test system: A549 xenograft tumors; experiment: A549 xenograft in nude mice treated with DMM, cisplatin or both; assay type: in vivo, athymic nude mice
Method: Approximately 5×10^6 control pLKO cells were subcutaneously implanted into female athymic nude mice. Mice were treated with DMM, cisplatin (CP), a combination of cisplatin with DMM (CP+DMM), or control (PBS), as described herein. Tumor size was measured and calculated. B: Direct injection of DMM into xenograft tumors caused shrinkage and ulceration of tumors, as compared to control with PBS.
Animal experiments were performed under federal guidelines and approved by the Institutional Animal Care and Use Committee (IACUC) of the Beth Israel Deaconess Medical Center (Approval number 0342007). A549 xenografts in nude mice were generated by following the description of Verrax et al., in Biochem. Pharmacol. 72: 671-680 (2006). Briefly, approximately 10^7 ME2 deficient or control A549 cells resuspended in 200 μl of a serum-free culture medium/Matrigel mixture (1:1) were subcutaneously injected into the right and left flanks of male nude/nu/nu athymic mice, respectively. Tumor-bearing mice were sacrificed after 6-8 weeks and tumor masses were measured or imaged before excision. Tumor lysates were prepared by homogenization of tumor tissues in RIPA lysis buffer and were resolved by SDS-PAGE and transferred onto PDVF membranes and immunoblotted with anti-ME2 antibody and normalized by β-tubulin as a loading control.

[9] = target: T1, ME2-C (Homo sapiens, UniProt P23368); experiment: In vitro activity of modified ME2 (ME2-C), absorbance at 340 nm; assay type: biochemical; conditions: 5, 15 and 45 mM DMM; 15 mM L-malate, 1 mM NAD+, 60 nM ME2-C, 37° C.
T1 construct: His tag (C); FLAG tag (cleavable) (C); made in house; host or cells: E. coli BL21(DE3)
Method: Modified ME2 is a recombinant ME2 protein having a C-terminus His tag and lacking the mitochondrial targeting sequence (ME2-C) was prepared, as described in Loeber et al., J. Biol. Chem. 266:3016-3021 (1991). The 200 μl assay mixture contained 30 mM of Tris-HCl (pH 7.4), 15 mM of L-malate (pH 7.4), 1 mM of NAD^+, 2 mM of MnCl2, and 60 nM of ME2-C. Different concentrations of DMM (pH 7.4) were tested, namely 5, 15 and 45 mM. The absorbance of the solution at 340 nm was monitored continuously with a Beckman Coulter DTX 880 multimode spectrophotometer at 37° C.
To further determine compounds that can be used to inhibit ME2 and/or increase intracellular malate, or a derivative thereof, an ME2 assay was established. Accordingly, a modified ME2 protein was constructed using a human ME2 expression vector and a bacterial expression system (E. coli BL21(DE3)) with a cleavable FLAG tag. Both N- and C-terminal constructs were assessed for protein production, and the mitochondrial targeting sequence was deleted in the constructs, as described in Loeber et al., J. Biol. Chem. 266:3016-3021 (1991), which is incorporated herein by reference. Kinetic experiments were performed with C-terminal tagged ME2 (ME2-C) and with an assay mixture containing 30 mM of Tris-HCl (pH 7.4), 15 mM of L-malate (pH 7.4), 1 mM of NAD+, 2 mM of MnCl2, and 60 nM of ME2-C. […]

[10] = test system: A549 cells; experiment: Survival of A549 cells in Hams/F12 medium without glucose, pyruvate and glutamine; assay type: cell-based, human; conditions: control and ME2 knockdown A549 cells, medium without pyruvate, glutamine
Method: A549 control or ME2 knockdown cells were grown in Hams/F12 based medium without glucose, pyruvate and glutamine. Different concentrations of glutamine were supplemented as indicated. The alive cells were stained with Nexin/7-ADD and analyzed by FACS. B: Exogenous supplementation of pyruvate can rescue ME2 depletion induced cell death. A549 control or ME2 knockdown cells were grown in Hams/F12 based medium without glucose, pyruvate and glutamine. Different concentrations of pyruvate were supplemented as indicated. The alive cells were stained with Nexin/7-ADD and analyzed by FACS. C and D: The effect of ME2 knockdown on de novo synthesis of PC is greater with ^13C6-Glc than with ^13C5, 1^5N2-Gln as tracer, as analyzed by FT-ICR-MS. E: Inhibition of ^13C3-citrate synthesis from ^13C6-Glc by ME2 knockdown, as determined by GC-MS. […] G and H: Effects of ME2 knockdown on the levels and fractional distribution of ^13C isotopologues of malate, as analyzed by GC-MS; rectangles depict ^13C2- (m2) and ^13C3-malate (m3) species as markers of the first turn of the Krebs cycle without and with pyruvate carboxylation input, respectively. […]

[11] = direct intratumoral injection, vs PBS

T1 sequence (P23368 19-584): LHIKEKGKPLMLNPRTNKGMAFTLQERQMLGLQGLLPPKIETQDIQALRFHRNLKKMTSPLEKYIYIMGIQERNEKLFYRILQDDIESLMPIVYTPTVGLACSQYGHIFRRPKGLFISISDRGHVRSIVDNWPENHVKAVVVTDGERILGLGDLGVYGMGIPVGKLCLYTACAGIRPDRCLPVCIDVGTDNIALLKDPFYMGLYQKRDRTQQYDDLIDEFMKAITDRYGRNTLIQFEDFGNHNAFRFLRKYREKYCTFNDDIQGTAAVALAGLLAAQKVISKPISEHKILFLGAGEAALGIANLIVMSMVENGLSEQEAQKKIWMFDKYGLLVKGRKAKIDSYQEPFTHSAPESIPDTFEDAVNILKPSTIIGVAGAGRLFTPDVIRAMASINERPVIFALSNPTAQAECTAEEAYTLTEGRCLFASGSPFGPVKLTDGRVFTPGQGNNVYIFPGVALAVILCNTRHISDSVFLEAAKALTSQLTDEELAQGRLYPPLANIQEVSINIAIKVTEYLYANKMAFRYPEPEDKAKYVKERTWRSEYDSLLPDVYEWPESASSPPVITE

In the case of `COC(=O)CC(O)C(=O)OC` (centres unmarked) [DMM, dimethyl malate], the “proliferation of A549 cells” value ([1]; 10 and 20 mM DMM, control (pLKO) and ME2 knockdown (shME2-3) A549 cells) is reported as “significantly inhibited”, the “sensitivity of ME2 knockdown cells to DMM treatment compared to control cancer cells” value ([1]; shME2-3 vs pLKO A549 cells) is reported as “more sensitive” and the “mode of cell death induced by DMM (annexin V assay)” value ([2]; A549 cells) is reported as “induced necrosis in A549 cells rather than apoptosis”. For the same compound, the “cell death in A549 cancer cell” value ([2]; compared with normal cell lines) was “selectively induced cell death”, the “time course of DMM-induced ROS production” value ([3]; 3 h to 3 days) was “time-dependent” and the “ROS production (CM-H2DCFDA)” value ([3]; A549 cells, exogenous DMM 5, 10, 20 mM) was “enhanced production of ROS”. For the same compound, the E-cadherin expression ([4]; A549 cells in vitro) was “increased”, the “basal Akt and PDK1 activity” value ([4]; A549 cells in vitro, p-AKT473 and p-PDK1) was “inhibited” and the “superoxide (MitoSOX Red)” value ([5]; 20 mM DMM for four days) was “increased presence of superoxide”. The “ROS production in normal cell lines” value [6] was “enhanced ROS production”, the “cell death in normal cell lines” value [7] was “not in the normal cell lines” and the “A549 tumor growth in vivo” value ([8]; 0.5 g/kg of DMM) was “significantly inhibited”. For the same compound, the “tumor size after direct injection into A549 xenograft tumors” value [8, 11] was “decreases in tumor size”, the “tumor tissue appearance after direct injection into A549 xenograft tumors” value [8, 11] was “ulceration of the tumor tissue” and the “activity of ME2-C” value [9] was “decreased the activity”.

With `N[C@@H](CCC(=O)N[C@@H](CS)C(=O)NCC(=O)O)C(=O)O` [GSH, reduced glutathione] the DMM-induced cell death [2] was “almost completely inhibited”, the “DMM-induced ROS production” value [3] was “inhibited” and the DMM-induced differentiation [4] was “reversed the DMM-induced differentiation”. For the same compound, the “basal Akt activity in DMM-treated A549 cells” value [4] was “rescued basal Akt activity”.

`CC(=O)N[C@@H](CS)C(=O)O` [NAC, N-acetyl-cysteine] was tested, and the DMM-induced cell death [2] was “almost completely inhibited”, the “cell death induced by ME2 knockdown, rescue by antioxidant” value ([2]; ME2 depleted cells) was “failed to rescue” and the “DMM-induced ROS production” value [3] was “inhibited”. For the same compound, the DMM-induced differentiation [4] was “reversed the DMM-induced differentiation”, the “basal Akt activity in DMM-treated A549 cells” value [4] was “rescued basal Akt activity” and the “superoxide production in DMM-treated cells” value ([5]; DMM together with 20 mM NAC) was “decreased levels of superoxide production”.

`NC(=O)CC[C@H](N)C(=O)O` [glutamine] was tested, and the “rescue of cell survival by supplementation” value [10] was “rescued control cells more than ME2 knockdown cells”.
